{
  "source": "paper PMC6270338",
  "about": "“Diterpenylquinone Hybrids: Synthesis and Assessment of Gastroprotective Mechanisms of Action in Human Cells” (Molecules, 2013)",
  "key": {"AGS cells [1]": {"tested_on": "AGS cells", "test": "Cellular reduced glutathione (GSH) content of AGS cells", "format": "cell-based, human", "details": "4 h; for GSH: post-confluent AGS, control 13.6 ± 0.7", "protocol": "Untreated cells were used as controls. […] After incubation, the GSH content was determined using a colorimetric kit (BioAssays Systems, Hayward, CA, USA). Results are expressed as nanomol of soluble reduced sulfhydryls/10^6 cells."}, "[2]": {"tested_on": "human erythrocyte membranes", "test": "Inhibition of lipoperoxidation in erythrocyte membranes", "format": "biochemical"}, "[3]": {"test": "Cytotoxicity, neutral red uptake assay, AGS", "format": "cell-based", "details": "human, AGS gastric epithelial cells, confluent monolayer, read-out: IC50 ± SD, cytotoxicity AGS", "protocol": "(§1) Human lung fibroblasts MRC-5 (ATCC CCL-171) were grown in minimum essential Eagle medium (MEM) with Earles’s salts and 2 mM L-glutamine (Sigma-Aldrich Co.). Human epithelial gastric cells AGS (ATCC CRL-1739) were grown in Ham F-12 medium containing 1 mM L-glutamine. Both media were supplemented with 1.5 g/L sodium bicarbonate (Sigma-Aldrich Co.), 10% heat-inactivated fetal bovine serum (FBS), 100 IU/mL penicillin and 100 µg/mL streptomycin.Both cell lines were grown as monolayers in a humidified incubator with 5% CO2 in air at 37 °C. Culture media, antibiotics and FBS were obtained from Invitrogen Corp.\n(§2) Cytotoxicity values were required as a reference to determine the working concentrations in the subsequent experiments. Briefly, confluent cultures of MRC-5 and AGS cells were treated during 24 h with medium containing the compounds at concentrations ranging from 0 up to 1,000 µM. The products were first dissolved in DMSO (1% final concentration) and then in the corresponding culture medium supplemented with 2% FBS. Untreated cells were used as controls. Cell viability was determined at the end of the incubation by means of the neutral red uptake (NRU) assay. Lansoprazole (Sigma-Aldrich Co., min. 98% by TLC) was used as reference compound."}, "AGS cells [4]": {"tested_on": "AGS cells", "test": "Sodium taurocholate (NaT)-induced damage to AGS cells", "format": "cell-based, human", "details": "60 min pre-treatment, then 10 mM NaT 30 min", "protocol": "The effect of sodium taurocholate (NaT) on cell viability was determined according to [15]. […] Then, 10 mM NaT was added to all wells for 30 min. Untreated cells were used as controls. […] After incubation, the NRU assay was carried out."}, "[5]": {"test": "Cytotoxicity, neutral red uptake assay, MRC-5", "format": "cell-based", "details": "human, MRC-5 lung fibroblasts, confluent monolayer, confluent MRC-5, 24 h, read-out: IC50 ± SD, cytotoxicity MRC-5", "protocol": "as §1, §2"}, "MRC-5 fibroblasts": {"tested_on": "MRC-5 fibroblasts", "test": "MRC-5 fibroblast proliferation assay", "format": "cell-based, human", "details": "MRC-5, 4 days, concentrations 1/64 to 1/2 of IC50", "protocol": "Untreated cells were used as controls. Cell viability was determined at the end of the incubation by means of the NRU assay."}, "[6]": {"tested_on": "human erythrocyte membranes", "test": "Inhibition of lipoperoxidation in erythrocyte membranes", "format": "biochemical", "details": "at 100 µg/mL", "protocol": "The inhibition of lipid peroxidation was determined using human erythrocyte membranes. The compounds were tested at 100 µg/mL."}},
  "data": [
    {"smiles": "CC1=C(CC[C@@H](C)CC(=O)O)[C@@]2(C)CCC[C@](C)(C(=O)O)C2CC1", "note": "(stereo partly shown) [Compound 5, Δ8(9) Junicedric acid]", "values": [
      {"measurement": "Effect in the GSH assay", "setting": "AGS cells [1]; AGS, 1/4 and 1/8 of IC50", "result": "devoid of activity"},
      {"measurement": "GSH", "setting": "AGS cells [1]; 83 µM", "result": "13.6 ± 0.5", "unit": "nmol/10^6 cells"},
      {"measurement": "GSH", "setting": "AGS cells [1]; 166 µM", "result": "14.1 ± 0.6", "unit": "nmol/10^6 cells"},
      {"measurement": "IC50, inhibition of the lipoperoxidation", "setting": "[2]", "result": "IC50 43.8 ± 2.8 µg/mL"},
      {"measurement": "IC50 at 24 h", "setting": "[3]", "result": "666 ± 35", "unit": "µM"},
      {"measurement": "reduction in cell viability, NaT-induced damage", "setting": "AGS cells [4]; 83 µM", "result": 19, "unit": "%"},
      {"measurement": "reduction in cell viability, NaT-induced damage", "setting": "AGS cells [4]; 333 µM", "result": 35, "unit": "%"},
      {"measurement": "IC50 at 24 h", "setting": "[5]", "result": "834 ± 51", "unit": "µM"},
      {"measurement": "Percentual proliferative increase compared to untreated cells", "setting": "MRC-5 fibroblasts", "result": 3.6, "unit": "%"}
    ]},
    {"smiles": "C=C1CCC2[C@](C)(CCC[C@]2(C)C(=O)O)[C@H]1CC[C@@H](C)CC(=O)OC1=C(CCC(C)C)C(=O)C2=C(CCCC2)C1=O", "note": "(stereo partly shown) [Compound 11, Dihydroprenyl-5,6,7,8-tetrahydrolapachoyl junicedrate]", "values": [
      {"measurement": "GSH", "setting": "AGS cells [1]; 8 µM", "result": "13.1 ± 0.6", "unit": "nmol/10^6 cells"},
      {"measurement": "GSH", "setting": "AGS cells [1]; 16 µM", "result": "13.2 ± 0.5", "unit": "nmol/10^6 cells"},
      {"measurement": "IC50 at 24 h", "setting": "[3]", "result": "63 ± 4", "unit": "µM"},
      {"measurement": "IC50 at 24 h", "setting": "[5]", "result": "42 ± 2", "unit": "µM"},
      {"measurement": "Percentual proliferative increase compared to untreated cells", "setting": "MRC-5 fibroblasts", "result": 3.6, "unit": "%"},
      {"measurement": "% Inhibition of the lipoperoxidation", "setting": "[6]", "result": 44, "unit": "%"}
    ]},
    {"smiles": "CC(C)=CCC1=C(OC(=O)C[C@H](C)CC[C@H]2[C@@H](C)CCC3[C@]2(C)CCC[C@]3(C)C(=O)O)C(=O)c2ccccc2C1=O", "note": "(stereo partly drawn) [Compound 13, Lapachoyl 17β-dihydrojunicedrate]", "values": [
      {"measurement": "GSH", "setting": "AGS cells [1]; 44 µM", "result": "11.9 ± 0.4", "unit": "nmol/10^6 cells"},
      {"measurement": "GSH", "setting": "AGS cells [1]; 88 µM", "result": "11.4 ± 0.6", "unit": "nmol/10^6 cells"},
      {"measurement": "IC50, inhibition of the lipoperoxidation", "setting": "[2]", "result": "IC50 61.1 ± 5.9 µg/mL"},
      {"measurement": "IC50 at 24 h", "setting": "[3]", "result": "351 ± 29", "unit": "µM"},
      {"measurement": "reduction in cell viability, NaT-induced damage", "setting": "AGS cells [4]; 45 µM", "result": 38, "unit": "%"},
      {"measurement": "reduction in cell viability, NaT-induced damage", "setting": "AGS cells [4]; 89 µM", "result": 38, "unit": "%"},
      {"measurement": "IC50 at 24 h", "setting": "[5]", "result": "355 ± 21", "unit": "µM"},
      {"measurement": "Percentual proliferative increase compared to untreated cells", "setting": "MRC-5 fibroblasts", "result": 7.3, "unit": "%"}
    ]},
    {"smiles": "COC(=O)[C@@]1(C)CCC[C@@]2(C)C1CC[C@H](C)[C@@H]2CC[C@@H](C)CC(=O)OC1=C(CCC(C)C)C(=O)c2ccccc2C1=O", "note": "(stereo partly drawn) [Compound 16, Dihydroprenyl lapachol 17β-dihydrojunicedrate methyl ester]", "values": [
      {"measurement": "GSH", "setting": "AGS cells [1]; 80 µM", "result": "14.9 ± 0.7", "unit": "nmol/10^6 cells"},
      {"measurement": "GSH", "setting": "AGS cells [1]; 160 µM", "result": "14.1 ± 0.6", "unit": "nmol/10^6 cells"},
      {"measurement": "IC50 at 24 h", "setting": "[3]", "result": "643 ± 39", "unit": "µM"},
      {"measurement": "reduction in cell viability, NaT-induced damage", "setting": "AGS cells [4]; 81 µM", "result": 44, "unit": "%"},
      {"measurement": "IC50 at 24 h", "setting": "[5]", "result": "596 ± 44", "unit": "µM"},
      {"measurement": "% Inhibition of the lipoperoxidation", "setting": "[6]", "result": 46, "unit": "%"}
    ]},
    {"smiles": "CC(C)=CCC1=C(OC(=O)C[C@H](C)CCC2=C(C)CCC3[C@@](C)(C(=O)O)CCC[C@]23C)C(=O)c2ccccc2C1=O", "note": "(stereo partly shown) [Compound 19, Lapachoyl Δ8(9) junicedrate]", "values": [
      {"measurement": "GSH", "setting": "AGS cells [1]; 19 µM", "result": "13.1 ± 0.4", "unit": "nmol/10^6 cells"},
      {"measurement": "GSH", "setting": "AGS cells [1]; 37 µM", "result": "13.5 ± 0.5", "unit": "nmol/10^6 cells"},
      {"measurement": "IC50 at 24 h", "setting": "[3]", "result": "148 ± 9", "unit": "µM"},
      {"measurement": "reduction in cell viability, NaT-induced damage", "setting": "AGS cells [4]; 19 µM", "result": 15, "unit": "%"},
      {"measurement": "reduction in cell viability, NaT-induced damage", "setting": "AGS cells [4]; 37 µM", "result": 27, "unit": "%"},
      {"measurement": "reduction in cell viability, NaT-induced damage", "setting": "AGS cells [4]; 74 µM", "result": 40, "unit": "%"},
      {"measurement": "IC50 at 24 h", "setting": "[5]", "result": "129 ± 9", "unit": "µM"},
      {"measurement": "% Inhibition of the lipoperoxidation", "setting": "[6]", "result": 49, "unit": "%"}
    ]},
    {"smiles": "CC1=C(CC[C@@H](C)CC(=O)OC2=C(CCC(C)C)C(=O)C3=C(CCCC3)C2=O)[C@@]2(C)CCC[C@](C)(C(=O)O)C2CC1", "note": "(stereo partly shown) [Compound 23, Dihydroprenyl-5,6,7,8-tetrahydrolapachoyl Δ8(9) junicedrate]", "values": [
      {"measurement": "activation at 7.3 µM", "setting": "AGS cells [1]; Homo sapiens, AGS, 7.3 µM, read-out: increase of GSH content compared to untreated controls", "result": 26, "unit": "%"},
      {"measurement": "GSH", "setting": "AGS cells [1]; 3.6 µM", "result": "12.6 ± 0.8", "unit": "nmol/10^6 cells"},
      {"measurement": "GSH", "setting": "AGS cells [1]; 7.3 µM", "result": "* 17.1 ± 1.3 nmol/10^6 cells"},
      {"measurement": "IC50, inhibition of the lipoperoxidation", "setting": "[2]", "result": "IC50 59.5 ± 4.3 µg/mL"},
      {"measurement": "IC50 at 24 h", "setting": "[3]", "result": "29 ± 2", "unit": "µM"},
      {"measurement": "reduction in cell viability, NaT-induced damage", "setting": "AGS cells [4]; 7.5 µM", "result": 32, "unit": "%"},
      {"measurement": "reduction in cell viability, NaT-induced damage", "setting": "AGS cells [4]; 15 µM", "result": 39, "unit": "%"},
      {"measurement": "IC50 at 24 h", "setting": "[5]", "result": "20 ± 2", "unit": "µM"},
      {"measurement": "Stimulation of fibroblast proliferation", "setting": "MRC-5 fibroblasts", "result": "inactive"}
    ]}
  ]
}
